Converted amounts (≈) assume the structure as drawn. Read-outs that look alike come from different tables or passages of the source.
Key:
Clostridium perfringens [1] = conditions: anaerobe, agar dilution, read after 24-hour incubation
Bacteriodes fragilis = assay: Activity against anaerobic bacteria, agar-dilution MIC; type: cell-based
[2] = system: Streptococcus pyogenes C203; type: cell-based
Procedure: (§1) The MIC's in Table VII were determined by standard agar-dilution assays.

[3] = system: Staphylococcus aureus V41; type: cell-based
Procedure: as §1

[4] = system: Staphylococcus aureus X1.1; type: cell-based
Procedure: as §1

[5] = system: Staphylococcus epidermidis 270; type: cell-based
Procedure: as §1

[6] = system: Staphylococcus epidermidis 222; type: cell-based
Procedure: as §1

[7] = system: Enterococcus faecalis 2041; type: cell-based
Procedure: as §1

Enterococcus faecium X66 = type: cell-based
Procedure: as §1

[8] = system: Staphylococcus aureus X400; type: cell-based
Procedure: as §1

[9] = system: Bacteriodes thetaiotaomicron; assay: Activity against anaerobic bacteria, agar-dilution MIC
[10] = system: Bacteriodes melaninogenicus; assay: as above; type: cell-based
[11] = system: Fusobacterium necrophorum; conditions: anaerobe, agar dilution, read after 24-hour incubation
[12] = system: Streptococcus pneumoniae Park 1; assay: microbe, parasite or virus in culture; type: cell-based
Procedure: as §1

Bacteroides corrodens = assay: Activity against anaerobic bacteria, agar-dilution MIC; type: cell-based
Bacteriodes vulgatis = assay: as above
Staphylococcus aureus = assay: In vivo activity against experimentally-induced infection in mice; conditions: doses administered subcutaneously to mice 1 and 4 hours postinfection
Procedure: (§2) The A83850 antibiotics have also shown in vivo antimicrobial activity against experimentally-induced infections in laboratory animals. When two doses of test compound were administered to mice experimentally infected with the test organism, the activity observed was measured as an ED50 value [effective dose in mg/kg to protect 50% of the test animals: see Warren Wick, et al., J. Bacteriol. 81, 233-235 (1961)].
(§3) ^a mg/kg × 2; doses administered subcutaneously to mice 1 and 4

Streptococcus pneumoniae = assay: as above; conditions: doses administered subcutaneously to mice 1 and 4 hours postinfection
Procedure: as §2, §3

Streptococcus pyogenes = assay: as above; conditions: doses administered subcutaneously to mice 1 and 4 hours postinfection
Procedure: as §2, §3

Peptococcus prevoti = assay: Activity against anaerobic bacteria, agar-dilution MIC
[13] = system: Peptostreptococcus intermedius; assay: as above; type: cell-based
Propionibacterium acnes = assay: as above; type: cell-based
Eubacterium aerofaciens [14] = conditions: anaerobe, agar dilution, read after 24-hour incubation
Clostridium septicum [15] = conditions: anaerobe, agar dilution, read after 24-hour incubation
Fusobacterium symbiosum [16] = conditions: anaerobe, agar dilution, read after 24-hour incubation
Clostridium difficile = assay: Activity against anaerobic bacteria, agar-dilution MIC
[17] = system: Peptococcus asaccharolyticus; assay: as above
[18] = system: Peptostreptococcus anaerobius; assay: as above; type: cell-based
[19] = system: Fusobacterium necrophorum; assay: microbe, parasite or virus in culture; conditions: 24 h
Fusobacterium symbiosum [20] = assay: microbe, parasite or virus in culture; conditions: 24 h
Clostridium septicum [21] = assay: microbe, parasite or virus in culture; conditions: 24 h
Eubacterium aerofaciens [22] = assay: microbe, parasite or virus in culture; conditions: Collinsella aerofaciens, 24 h
Clostridium perfringens [23] = assay: microbe, parasite or virus in culture; conditions: 24 h
[24] = system: Culture A83850 (Amycolatopsis albus NRRL 18532); assay: Resistance of culture A83850 to antibiotics, sensitivity discs on seeded ISP No. 2 agar plates; type: cell-based; conditions: disc content printed per antibiotic
Procedure: Resistance to antibiotics was measured by padding antibiotic sensitivity discs onto the surface of seeded ISP No. 2 agar plates.

SMILES: CN[C@H](CC(C)C)C(=O)N[C@H]1C(=O)N[C@@H](CC(N)=O)C(=O)N[C@H]2C(=O)N[C@H]3C(=O)N[C@H](C(=O)N[C@H](C(=O)O)c4cc(O)cc(O)c4-c4cc3ccc4O)[C@H](O)c3ccc(c(Cl)c3)Oc3cc2cc(c3O[C@@H]2O[C@H](CO)[C@@H](O)[C@H](O)[C@H]2O[C@H]2C[C@](C)(N)C(=O)[C@H](C)O2)Oc2ccc(cc2Cl)[C@H]1O [A83850B]
- MIC (Clostridium perfringens [1]): 2 µg/mL (≈ 1.38 µM)
- MIC (Bacteriodes fragilis; Bacteriodes fragilis, anaerobe, agar dilution, read after 24-hour incubation): 16.0 to 32.0 µg/mL
- MIC ([2]; Streptococcus pyogenes C203, agar dilution): 0.5 µg/mL (≈ 0.345 µM)
- MIC ([3]; Staphylococcus aureus V41, agar dilution): 1.0 µg/mL (≈ 0.691 µM)
- MIC ([4]; Staphylococcus aureus X1.1, agar dilution): 0.5 µg/mL (≈ 0.345 µM)
- MIC ([5]; Staphylococcus epidermidis 270, agar dilution): 1.0 µg/mL (≈ 0.691 µM)
- MIC ([6]; Staphylococcus epidermidis 222, agar dilution): 1.0 µg/mL (≈ 0.691 µM)
- MIC ([7]; Enterococcus faecalis 2041, agar dilution): 4.0 µg/mL (≈ 2.76 µM)
- MIC (Enterococcus faecium X66; Enterococcus faecium X66, agar dilution): 1.0 µg/mL (≈ 0.691 µM)
- MIC ([8]; Staphylococcus aureus X400, agar dilution): 1.0 µg/mL (≈ 0.691 µM)
- MIC ([9]; Bacteriodes thetaiotaomicron, anaerobe, agar dilution, read after 24-hour incubation): 64 µg/mL (≈ 44.2 µM)
- MIC ([10]; Bacteriodes melaninogenicus, anaerobe, agar dilution, read after 24-hour incubation): 32 µg/mL (≈ 22.1 µM)
- MIC [11]: 1.0 µg/mL (≈ 0.691 µM)
- MIC ([12]; Streptococcus pneumoniae Park 1, agar dilution): 0.125 µg/mL (≈ 0.0864 µM)
- MIC (Bacteroides corrodens; Bacteroides corrodens, anaerobe, agar dilution, read after 24-hour incubation): 32 µg/mL (≈ 22.1 µM)
- MIC (Bacteriodes vulgatis; Bacteriodes vulgatis, anaerobe, agar dilution, read after 24-hour incubation): 16 µg/mL (≈ 11.1 µM)
- ED50 Value (Staphylococcus aureus): 2.87 mg/kg × 2
- ED50 Value (Streptococcus pneumoniae): 0.98 mg/kg × 2
- ED50 Value (Streptococcus pyogenes): 2.19 mg/kg × 2
- MIC (Peptococcus prevoti; Peptococcus prevoti, anaerobe, agar dilution, read after 24-hour incubation): 2 µg/mL (≈ 1.38 µM)
- MIC ([13]; Peptostreptococcus intermedius, anaerobe, agar dilution, read after 24-hour incubation): 2.0 µg/mL (≈ 1.38 µM)
- MIC (Propionibacterium acnes; Propionibacterium acnes, anaerobe, agar dilution, read after 24-hour incubation): 8.0 µg/mL (≈ 5.53 µM)
- MIC (Eubacterium aerofaciens [14]): 2 µg/mL (≈ 1.38 µM)
- MIC (Clostridium septicum [15]): 1.0 µg/mL (≈ 0.691 µM)
- MIC (Fusobacterium symbiosum [16]): 2 µg/mL (≈ 1.38 µM)
- MIC (Clostridium difficile; Clostridium difficile, anaerobe, agar dilution, read after 24-hour incubation): 2 µg/mL (≈ 1.38 µM)
- MIC ([17]; Peptococcus asaccharolyticus, anaerobe, agar dilution, read after 24-hour incubation): 2 µg/mL (≈ 1.38 µM)
- MIC ([18]; anaerobe, agar dilution, read after 24-hour incubation): 16 µg/mL (≈ 11.1 µM)

SMILES: CN[C@H](CC(C)C)C(=O)N[C@H]1C(=O)N[C@@H](CC(N)=O)C(=O)N[C@H]2C(=O)N[C@H]3C(=O)N[C@H](C(=O)N[C@H](C(=O)O)c4cc(O)cc(O)c4-c4cc3ccc4O)[C@H](O)c3ccc(c(Cl)c3)Oc3cc2cc(c3O[C@@H]2O[C@H](CO)[C@@H](O)[C@H](O)[C@H]2O[C@H]2C[C@](C)(N)[C@H](O)[C@H](C)O2)Oc2ccc(cc2Cl)[C@H]1O [Vancomycin, vancomycin, reference compound]
- MIC (Bacteriodes fragilis; 24 h): 16 to 32 µg/mL (≈ 11 to 22.1 µM)
- MIC ([2]; Streptococcus pyogenes, C203): 0.5 µg/mL (≈ 0.345 µM)
- MIC ([3]; Staphylococcus aureus, V41): 0.5 µg/mL (≈ 0.345 µM)
- MIC ([4]; Staphylococcus aureus, X1.1): 0.5 µg/mL (≈ 0.345 µM)
- MIC ([5]; Staphylococcus epidermidis, 270): 1 µg/mL (≈ 0.69 µM)
- MIC ([6]; Staphylococcus epidermidis, 222): 1 µg/mL (≈ 0.69 µM)
- MIC ([7]; Enterococcus faecalis, 2041): 4 µg/mL (≈ 2.76 µM)
- MIC (Enterococcus faecium X66; Enterococcus faecium, X66): 1 µg/mL (≈ 0.69 µM)
- MIC ([8]; Staphylococcus aureus, X400): 1 µg/mL (≈ 0.69 µM)
- MIC ([9]; 24 h): 64 µg/mL (≈ 44.2 µM)
- MIC ([10]; 24 h): 128 µg/mL (≈ 88.3 µM)
- MIC ([12]; Streptococcus pneumoniae, PARK1): 0.5 µg/mL (≈ 0.345 µM)
- MIC (Bacteroides corrodens; Eikenella corrodens, 24 h): 32 µg/mL (≈ 22.1 µM)
- MIC [19]: 1 µg/mL (≈ 0.69 µM)
- MIC (Bacteriodes vulgatis; 24 h): 16 µg/mL (≈ 11 µM)
- MIC (Fusobacterium symbiosum [20]): 2 µg/mL (≈ 1.38 µM)
- ED50 Value (Staphylococcus aureus): 1.43 mg/kg × 2
- ED50 Value (Streptococcus pneumoniae): 0.67 mg/kg × 2
- ED50 Value (Streptococcus pyogenes): 0.98 mg/kg × 2
- MIC (Peptococcus prevoti; 24 h): 4 µg/mL (≈ 2.76 µM)
- MIC (Clostridium septicum [21]): 2 µg/mL (≈ 1.38 µM)
- MIC ([13]; Peptostreptococcus, 24 h): 2 µg/mL (≈ 1.38 µM)
- MIC (Propionibacterium acnes; Cutibacterium acnes, 24 h): 4 µg/mL (≈ 2.76 µM)
- MIC (Eubacterium aerofaciens [22]): 8 µg/mL (≈ 5.52 µM)
- MIC (Clostridium perfringens [23]): 2 µg/mL (≈ 1.38 µM)
- MIC (Clostridium difficile; Clostridioides difficile, 24 h): 2 µg/mL (≈ 1.38 µM)
- MIC ([17]; Peptoniphilus asaccharolyticus, 24 h): 4 µg/mL (≈ 2.76 µM)
- Resistance or inhibition of culture A83850 by antibiotic disc [24]: inhibited
- MIC ([18]; 24 h): 1 µg/mL (≈ 0.69 µM)
